Source: ChEMBL document CHEMBL5728984, “Tricyclic inhibitors of poly(ADP-ribose)polymerase” (2022)

What follows are molecules tested against Poly [ADP-ribose] polymerase 1 (Homo sapiens, UniProt P09874) (assay: Enzyme Assay: Inhibition of PARP-1 enzymatic activities was measured using an HT Universal Colorimetric PARP Assay Kit (Trevigen, catalogue #4677-096-K) following the standard procedures. Serial dilutions of PARP compounds were added to appropriate wells. The compound was incubated with PARP enzyme at RT for 10 min, and the reaction was initiated by addition of the PARP substrate cocktail, Each concentration of compound was tested in triplicate wells. After 15 min reaction, the reaction was stopped, and the Strep-HRP was added into each well and incubated for 1 h at RT. After addition of TACS-Sapphire colorimetric substrate and incubated in dark for 15 min, the OD450 was read out with an EnVision instrument. IC50 values (the concentration at which 50% of the enzyme activity is inhibited) were calculated, which are determined over a range of different concentrations, normally from 10 uM to 0.1 nM.).
Chain of Poly [ADP-ribose] polymerase 1 (P09874 whole entry): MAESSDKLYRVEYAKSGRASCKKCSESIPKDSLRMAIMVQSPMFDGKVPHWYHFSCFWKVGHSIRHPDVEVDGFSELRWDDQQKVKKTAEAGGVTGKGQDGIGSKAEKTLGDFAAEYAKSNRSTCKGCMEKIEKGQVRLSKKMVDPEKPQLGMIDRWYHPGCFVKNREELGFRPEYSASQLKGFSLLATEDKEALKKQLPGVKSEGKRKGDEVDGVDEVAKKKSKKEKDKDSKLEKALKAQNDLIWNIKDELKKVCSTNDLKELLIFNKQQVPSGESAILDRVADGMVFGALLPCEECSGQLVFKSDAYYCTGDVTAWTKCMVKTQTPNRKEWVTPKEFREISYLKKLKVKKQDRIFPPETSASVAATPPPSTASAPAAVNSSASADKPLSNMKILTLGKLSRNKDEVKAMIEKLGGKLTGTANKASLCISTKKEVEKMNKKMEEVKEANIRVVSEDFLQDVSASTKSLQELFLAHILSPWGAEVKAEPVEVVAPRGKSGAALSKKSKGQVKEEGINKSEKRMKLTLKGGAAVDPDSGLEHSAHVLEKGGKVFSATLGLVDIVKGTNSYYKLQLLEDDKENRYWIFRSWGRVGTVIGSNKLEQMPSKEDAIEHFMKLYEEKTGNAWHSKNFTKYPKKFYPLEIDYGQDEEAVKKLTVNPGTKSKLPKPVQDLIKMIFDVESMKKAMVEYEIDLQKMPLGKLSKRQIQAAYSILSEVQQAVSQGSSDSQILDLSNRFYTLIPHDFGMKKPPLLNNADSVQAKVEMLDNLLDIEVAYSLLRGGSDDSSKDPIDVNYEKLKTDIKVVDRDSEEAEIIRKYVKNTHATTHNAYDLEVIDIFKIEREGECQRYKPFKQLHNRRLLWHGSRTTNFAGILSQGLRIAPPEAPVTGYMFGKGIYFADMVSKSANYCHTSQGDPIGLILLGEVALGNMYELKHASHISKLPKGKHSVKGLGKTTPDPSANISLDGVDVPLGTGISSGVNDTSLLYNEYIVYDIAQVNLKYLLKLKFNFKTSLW

| SMILES | IC50 [nM] |
| --- | --- |
| CCP1(=O)CCN(C(=O)c2cc(Cc3n[nH]c(=O)c4ccccc34)ccc2F)CC1 | < 100 |
| O=c1[nH]nc(Cc2ccc(F)c(P3(=O)CCN(c4ncccn4)CC3)c2)c2ccccc12 | < 100 |
| CCOP1(=O)CCN(C(=O)c2cc(Cc3n[nH]c(=O)c4ccccc34)ccc2F)CC1 | < 100 |

Second part, the molecule after the results:

| IC50 [nM] | SMILES |
| --- | --- |
| < 100 | CC(C)(C)C(=O)N1CCP(=O)(c2cc(Cc3n[nH]c(=O)c4ccccc34)ccc2F)CC1 |
| < 100 | CC(C)P1(=O)CCN(C(=O)c2cc(Cc3n[nH]c(=O)c4ccccc34)ccc2F)CC1 |
| < 100 | CC(C)CN1CCP(=O)(c2cc(Cc3n[nH]c(=O)c4ccccc34)ccc2F)CC1 |
| < 100 | N#C/N=C(\N1CCC1)N1CCP(=O)(c2cc(Cc3n[nH]c(=O)c4ccccc34)ccc2F)CC1 |
